Key:
MEC1 CLL cell line [1] = experiment: alamarBlue assay, in vitro antileukaemic activity against MEC1 CLL cell line; assay type: cell-based
Source text: Defective p53-signalling increases genomic instability and drives tumour progression. A high frequency of p53 inactivation is found in relapsed, treatment-resistant, high risk CLL.[30] […] Owing to resource availability a subset of up to ten of these compounds was prioritised for further investigation. Compounds 2d, 2e, 2j, 2aa, 5a, 5d, 5e, 5f, 5ab and 6b were selected on the basis of reasons including ease of synthetic access, diversity across the chemical space probed and novelty. Those prepared under conditions (i)Scheme 1 (2d, 5a and 6b) were available on a scale and in a purity to directly permit follow-up studies, whereas compounds prepared under conditions (ii)Scheme 1 were prepared on a small scale so were resynthesised. These seven compounds (2e, 2j, 2aa, 5d, 5e, 5f and 5ab) were isolated on >30 mg scale in high purity and progressed to more following studies.
Following the identification of 5f as the most promising drug-like derivative of PTL from the aforementioned parallel/high-throughput screening, the anti-leukaemic activity of 5f was tested once more and compared directly with that of PTL (1) and DMAPT (2a), which serve as comparators and positive controls.
Amine 7 was successfully prepared as follows: 4-Piperidinecarboxylic acid was N-Boc protected to deliver 8 in 92% yield.[43] In order to confidently assign the NMR spectra of compound 8 J-MOD, HSQC and ^1H–^1H COSY were helpful, particularly in establishing that a broad resonance in the proton-decoupled ^13C NMR spectrum, centred on 42.8 ppm, corresponds to the ring-carbons bonded to nitrogen. The carboxylic acid of 8 was converted to the corresponding ethyl-3-keto-propanoate 9 in 24% yield. Conversion of 9 to the N-Boc protected congener 10, was achieved by treatment with acetamidine hydrochloride and potassium carbonate, furnishing 10 in 77% yield. Treatment with trifluoroacetic acid delivered desired compound 7 in 99% yield for the Boc-deprotection step (scale 200 mg, 17% over four linear steps). Thus, evidencing accessibility of amine 7 and with it in hand, it was timely to probe any activity arising from the amine alone. MEC1 sensitivity to 1, 5f and 7 was compared in parallel using the alamarBlue® assay (Fig. 6). […] A pre-peer-reviewed preprint of this article was deposited and may be viewed elsewhere.[44]

[2] = Stability in aqueous solution, pH 7.4; assay type: physicochemical; settings: for half-life: pH 7.4, read-out: Stability pH 7.4 T1/2; for stability in aqueous solution: result in words
Description: Compounds 2d, 2e, 2f, 2g, 2j, 2aa, 5a, 5d, 5e, 5f, 5ab and 6b were subjected to in vitro DMPK testing. […] The other three (2d, 2j and 2aa) were not retained for further investigation due to poor stability (T1/2 at pH 7.4: 13, 107 and 76 min, Table 1, entries 1, 3 and 4 respectively). One obvious aspect contributing to observed stability is the propensity for PTL derivatives of this type to undergo a retro-amination (reverse-Michael-type mechanism), indeed this reverse reaction is often claimed as a pro-drug mode of action.[29a],[33] […] It is a reasonable assertion that activity observed for these unstable compounds could well be ascribed to free PTL generated rapidly in the assay.

[3] = Microsomal stability assay (mouse); settings: mouse, liver microsomes
MEC1 CLL cell line [4] = experiment: cells; design: alamarBlue (resazurin reduction) viability assay in MEC1 CLL cells; settings: Homo sapiens, MEC1, 24 h; read-out: alamarBlue EC50 (uM) average
Source text: Defective p53-signalling increases genomic instability and drives tumour progression. A high frequency of p53 inactivation is found in relapsed, treatment-resistant, high risk CLL.[30] […] Owing to resource availability a subset of up to ten of these compounds was prioritised for further investigation. Compounds 2d, 2e, 2j, 2aa, 5a, 5d, 5e, 5f, 5ab and 6b were selected on the basis of reasons including ease of synthetic access, diversity across the chemical space probed and novelty. Those prepared under conditions (i)Scheme 1 (2d, 5a and 6b) were available on a scale and in a purity to directly permit follow-up studies, whereas compounds prepared under conditions (ii)Scheme 1 were prepared on a small scale so were resynthesised. These seven compounds (2e, 2j, 2aa, 5d, 5e, 5f and 5ab) were isolated on >30 mg scale in high purity and progressed to more following studies. Biological efforts at Sygnature Discovery (where differing to University of Birmingham) MEC1 cells were obtained from the American Type Culture Collection (Manassas, VA 20110 USA) and were routinely cultured in RPMI 1640 medium (Sigma-Aldrich) supplemented with 1% L-glutamine (Sigma-Aldrich), 1% Penicillin/Streptomycin (Sigma-Aldrich) and 10% FBS (Gibco). The MEC1 proliferation assay was conducted by performing a re-feed of the MEC1 cells 24 h prior to cell seeding. On the day of the assay, cells were seeded into a 384-well assay plate at a density of 12,500 cells/well in 25 μL of complete MEC1 medium. Compound treatment was performed on the day of cell seeding, with compounds prepared as duplicate compound response curves (final DMSO concentration of 0.6%). Post compound treatment, MEC1 assay plates were returned to a 37 °C/5% CO2 incubator for 24 h of incubation. Following compound treatment, cellular viability was determined by measuring reduction of alamarBlue® reagent (Invitrogen). alamarBlue® reagent (2.5 μL) was added to each assay well to give a 1:10 dilution of the neat stock and assay plates were incubated for 3 h at 37 °C/5% CO2. Reduction of alamarBlue® was determined using an Envision Xcite plate reader (Perkin Elmer) with an excitation wavelength of 560 nm set and an emission wavelength of 590 nm set. Cell viability was determined by normalising raw fluorescent data to a cell only high control and Parthenolide treated low control to provide percentage viability readout. Data was plotted and EC50 values extracted and reported EC50s represent an average of at least two independent assays.

[5] = Caco-2 permeability assay; assay type: in vitro ADME; settings: human, Caco-2, pH 7.4
[6] = MEC1 cell line, alamarBlue assay, library screen, read-out: EC50 ave.
[7] = Homo sapiens, MEC1, MEC1 cell line, alamarBlue assay, library screen, read-out: EC50 ave.

Compound | EC50 (MEC1 CLL cell line [1]; [6]) [µM] | half-life [2] [h] | stability in aqueous solution [2] | microsomal CLint [3] [µL/min/mg] | EC50 (MEC1 CLL cell line [1]; [7]) [µM] | EC50 (MEC1 CLL cell line [4]) [µM] | further results
C/C1=C\CC[C@@]2(C)O[C@@H]2[C@H]2OC(=O)[C@@H](CN(C)CCc3ccccc3)[C@@H]2CC1 [Compound 2aa] | < 15 | 1.27 | – | – | – | – | –
CCN(CCO)C[C@@H]1C(=O)O[C@H]2[C@H]1CC/C(C)=C/CC[C@@]1(C)O[C@H]21 [Compound 2d] | < 15 | 0.217 | – | – | – | – | –
CCn1cc(CN(C[C@@H]2C(=O)O[C@H]3[C@H]2CC/C(C)=C/CC[C@@]2(C)O[C@H]32)C(C)C)cn1 [Compound 2e] | < 15 | – | greater than two hours | > 100 | – | – | –
C/C1=C\CC[C@@]2(C)O[C@@H]2[C@H]2OC(=O)[C@@H](CN(CCO)C3CCCCC3)[C@@H]2CC1 [Compound 2g] | – | – | – | – | < 15 | 10 | –
COc1ccc(CN(C)C[C@@H]2C(=O)O[C@H]3[C@H]2CC/C(C)=C/CC[C@@]2(C)O[C@H]32)cc1OC [Compound 2j] | < 15 | 1.78 | – | – | – | 9.7 | –
C/C1=C\CC[C@@]2(C)O[C@@H]2[C@H]2OC(=O)[C@@H](CN3CCC(OCc4cccnc4)CC3)[C@@H]2CC1 [Compound 5ab] | – | – | greater than two hours | > 100 | < 15 | – | –
CC1=CCCC2(C)OC2C2OC(=O)C(CN3CCCCC3)C2CC1 (centres unmarked) [Compound 5b] | – | – | greater than two hours | – | – | – | EC50 (MEC1 CLL cell line [1]; Homo sapiens, MEC1, read-out: EC50 ave., MEC1 cell line, alamarBlue assay, library screen): < 15 µM
C/C1=C\CC[C@@]2(C)O[C@@H]2[C@H]2OC(=O)[C@@H](CN3CCC(Oc4cccnc4)CC3)[C@@H]2CC1 [Compound 5d] | < 15 | – | greater than two hours | > 100 | – | – | –
C/C1=C\CC[C@@]2(C)O[C@@H]2[C@H]2OC(=O)[C@@H](CN3CCC(c4ccc(C(N)=O)cc4)CC3)[C@@H]2CC1 [Compound 5h] | – | – | – | – | < 15 | 13.8 | –
C/C1=C\CC[C@@]2(C)O[C@@H]2[C@H]2OC(=O)[C@@H](CN[C@@H](Cc3ccccc3)C(=O)O)[C@@H]2CC1 [Compound 6b] | – | – | greater than two hours | 9 | < 15 | – | efflux ratio [5]: 2.7
